Source: patent US10604531B2, “Enhancer of zeste homolog 2 inhibitors” (GLAXOSMITHKLINE INTELLECTUAL PROPERTY (NO.2) LIMITED, priority 2016, dated 2020)

What was measured:
[1] = target: EZH2 within the PRC2 complex (FLAG-EZH2, EED, SUZ12, RbAp48, AEBP2) (Homo sapiens (Human), UniProt Q15910); experiment: EZH2 methyltransferase scintillation proximity assay (SPA), PRC2 complex; type: biochemical; conditions: 3H-SAM, biotinylated histone H3K27 peptide, 60 min at room temperature; values of 10 nM approach the assay's limit of detection
EZH2 within the PRC2 complex (FLAG-EZH2, EED, SUZ12, RbAp48, AEBP2), sequence (Q15910 whole entry): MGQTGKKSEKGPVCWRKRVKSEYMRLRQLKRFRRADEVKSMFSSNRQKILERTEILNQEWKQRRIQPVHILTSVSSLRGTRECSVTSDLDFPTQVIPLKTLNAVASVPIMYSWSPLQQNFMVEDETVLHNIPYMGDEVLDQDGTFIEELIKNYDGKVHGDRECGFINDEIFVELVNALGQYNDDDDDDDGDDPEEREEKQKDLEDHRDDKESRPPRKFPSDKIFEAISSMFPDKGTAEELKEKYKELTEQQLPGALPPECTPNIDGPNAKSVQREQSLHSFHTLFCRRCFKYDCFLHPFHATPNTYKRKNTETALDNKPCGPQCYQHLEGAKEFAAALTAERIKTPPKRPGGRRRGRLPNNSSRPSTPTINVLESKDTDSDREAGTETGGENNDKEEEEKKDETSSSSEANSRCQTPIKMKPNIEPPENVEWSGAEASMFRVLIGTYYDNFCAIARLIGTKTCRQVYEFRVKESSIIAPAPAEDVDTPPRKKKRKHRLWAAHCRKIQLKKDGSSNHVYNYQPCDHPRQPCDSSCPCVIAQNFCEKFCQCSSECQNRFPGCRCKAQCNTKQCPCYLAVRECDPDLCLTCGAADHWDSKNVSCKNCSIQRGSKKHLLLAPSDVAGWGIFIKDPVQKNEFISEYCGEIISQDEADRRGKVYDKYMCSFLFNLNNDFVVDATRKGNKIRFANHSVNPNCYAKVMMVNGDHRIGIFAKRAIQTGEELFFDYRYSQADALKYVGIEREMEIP
EZH2 within the PRC2 complex (FLAG-EZH2, EED, SUZ12, RbAp48, AEBP2), sequence (O75530 whole entry partner): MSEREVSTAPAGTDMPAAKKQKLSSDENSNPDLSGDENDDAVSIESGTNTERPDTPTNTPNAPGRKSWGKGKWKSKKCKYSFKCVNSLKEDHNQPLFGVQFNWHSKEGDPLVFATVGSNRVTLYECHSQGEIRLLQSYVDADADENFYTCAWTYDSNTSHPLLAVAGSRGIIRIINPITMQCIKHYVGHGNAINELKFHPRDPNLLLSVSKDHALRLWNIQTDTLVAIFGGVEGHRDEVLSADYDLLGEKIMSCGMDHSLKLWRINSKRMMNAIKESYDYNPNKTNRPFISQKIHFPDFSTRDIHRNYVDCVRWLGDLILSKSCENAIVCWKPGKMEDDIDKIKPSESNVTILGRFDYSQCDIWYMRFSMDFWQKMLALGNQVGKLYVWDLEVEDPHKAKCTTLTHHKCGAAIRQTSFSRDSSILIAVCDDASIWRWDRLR
EZH2 within the PRC2 complex (FLAG-EZH2, EED, SUZ12, RbAp48, AEBP2), sequence (Q15022 whole entry partner): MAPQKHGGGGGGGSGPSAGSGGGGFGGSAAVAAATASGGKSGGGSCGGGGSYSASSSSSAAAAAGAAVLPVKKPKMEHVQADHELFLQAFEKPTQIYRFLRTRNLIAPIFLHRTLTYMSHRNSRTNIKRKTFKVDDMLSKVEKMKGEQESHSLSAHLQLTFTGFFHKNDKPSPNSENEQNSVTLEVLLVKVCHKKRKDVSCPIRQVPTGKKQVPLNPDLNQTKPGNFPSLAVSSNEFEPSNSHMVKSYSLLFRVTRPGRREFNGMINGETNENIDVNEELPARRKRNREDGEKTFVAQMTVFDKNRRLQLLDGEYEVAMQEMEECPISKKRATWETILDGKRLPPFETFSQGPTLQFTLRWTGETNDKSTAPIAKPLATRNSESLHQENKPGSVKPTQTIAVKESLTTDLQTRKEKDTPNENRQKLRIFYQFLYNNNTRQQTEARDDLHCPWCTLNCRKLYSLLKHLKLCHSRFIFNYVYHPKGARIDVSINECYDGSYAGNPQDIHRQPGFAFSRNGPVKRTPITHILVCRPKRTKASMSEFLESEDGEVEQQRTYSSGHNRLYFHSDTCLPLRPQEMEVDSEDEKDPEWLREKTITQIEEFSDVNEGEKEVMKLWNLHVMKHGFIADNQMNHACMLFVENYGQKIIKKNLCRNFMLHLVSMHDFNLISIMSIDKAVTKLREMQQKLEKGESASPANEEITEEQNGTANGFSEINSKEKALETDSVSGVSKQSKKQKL
EZH2 within the PRC2 complex (FLAG-EZH2, EED, SUZ12, RbAp48, AEBP2), sequence (Q09028 whole entry partner): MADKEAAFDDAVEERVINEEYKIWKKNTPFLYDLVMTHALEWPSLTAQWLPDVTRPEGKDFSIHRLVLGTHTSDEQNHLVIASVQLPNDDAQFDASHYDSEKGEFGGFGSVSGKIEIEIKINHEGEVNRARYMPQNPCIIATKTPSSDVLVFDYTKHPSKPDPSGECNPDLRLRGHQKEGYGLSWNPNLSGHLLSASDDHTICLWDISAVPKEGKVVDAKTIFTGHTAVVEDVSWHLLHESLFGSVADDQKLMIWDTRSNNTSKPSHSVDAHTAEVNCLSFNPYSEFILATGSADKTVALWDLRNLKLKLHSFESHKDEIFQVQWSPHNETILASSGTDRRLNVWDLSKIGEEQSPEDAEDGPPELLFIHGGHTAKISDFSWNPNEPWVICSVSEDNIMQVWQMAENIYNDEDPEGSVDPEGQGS
EZH2 within the PRC2 complex (FLAG-EZH2, EED, SUZ12, RbAp48, AEBP2), sequence (Q6ZN18 whole entry partner): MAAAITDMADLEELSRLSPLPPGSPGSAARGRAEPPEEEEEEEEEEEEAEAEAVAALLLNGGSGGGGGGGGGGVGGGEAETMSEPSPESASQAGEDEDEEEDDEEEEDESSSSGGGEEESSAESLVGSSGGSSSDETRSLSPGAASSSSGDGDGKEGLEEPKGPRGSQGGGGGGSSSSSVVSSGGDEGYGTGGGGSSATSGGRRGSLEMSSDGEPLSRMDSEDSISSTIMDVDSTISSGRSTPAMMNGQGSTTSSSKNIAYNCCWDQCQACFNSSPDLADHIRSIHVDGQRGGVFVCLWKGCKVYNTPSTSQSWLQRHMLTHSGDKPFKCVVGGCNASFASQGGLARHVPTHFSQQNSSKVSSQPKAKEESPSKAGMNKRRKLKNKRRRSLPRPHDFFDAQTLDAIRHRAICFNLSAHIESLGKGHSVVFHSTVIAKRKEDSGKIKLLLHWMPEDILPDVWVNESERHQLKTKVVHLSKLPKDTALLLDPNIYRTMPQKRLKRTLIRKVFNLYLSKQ
Method: Compounds contained herein were evaluated for their ability to inhibit the methyltransferase activity of EZH2 within the PRC2 complex. Human PRC2 complex was prepared by co-expressing each of the 5 member proteins (FLAG-EZH2, EED, SUZ12, RbAp48, AEBP2) in Sf9 cells followed by co-purification. Enzyme activity was measured in a scintillation proximity assay (SPA) where a tritiated methyl group is transferred from 3H-SAM to a lysine residue on a biotinylated, unmethylated peptide substrate derived from histone H3. The peptides were captured on streptavidin-coated SPA beads and the resulting signal was read on a ViewLux plate reader.
Part A. Compound Preparation
• 1. Prepare 10 mM stock of compounds from solid in 100% DMSO. • 2. Set up an 11-point serial dilution (1:4 dilution, top concentration 10 mM) in 100% DMSO for each test compound in a 384 well plate leaving columns 6 and 18 for DMSO controls. • 3. Dispense 10 nL of compound from the dilution plate into reaction plates (Corning, 384-well polystyrene NBS, Cat #3673). Part B. Reagent Preparation Prepare the following solutions: • 1. 1× Base Buffer, 50 mM Tris-HCl, pH 8, 2 mM MgCl2: Per 1 L of base buffer, combine 1 M Tris-HCl, pH 8 (50 mL), 1 M MgCl2 (2 mL), and distilled water (948 mL). • 2. 1× Assay Buffer: Per 10 mL of 1× Assay Buffer, combine 1× Base Buffer (9.96 mL), 1 M DTT (40 uL), and 10% Tween-20 (1 uL) to provide a final concentration of 50 mM Tris-HCl, pH 8, 2 mM MgCl2, 4 mM DTT, 0.001% Tween-20. • 3. 2× Enzyme Solution: Per 10 mL of 2× Enzyme Solution, combine 1× Assay Buffer (9.99 mL) and 3.24 uM EZH2 5 member complex (6.17 uL) to provide a final enzyme concentration of 1 nM. • 4. SPA Bead Solution: Per 1 mL of SPA Bead Solution, combine Streptavidin coated SPA beads (PerkinElmer, Cat # RPNQ0261, 40 mg) and 1× Assay Buffer (1 mL) to provide a working concentration of 40 mg/mL. • 5. 2× Substrate Solution: Per 10 mL of 2× Substrate Solution, combine 40 mg/mL SPA Bead Solution (375 uL), 1 mM biotinylated histone H3K27 peptide (200 uL), 12.5 uM 3H-SAM (240 uL; 1 mCi/mL), 1 mM cold SAM (57 uL), and 1× Assay Buffer (9.13 mL) to provide a final concentration of 0.75 mg/mL SPA Bead Solution, 10 uM biotinylated histone H3K27 peptide, 0.15 uM 3H-SAM (˜12 uCi/mL 3H-SAM), and 2.85 uM cold SAM. • 6. 2.67× Quench Solution: Per 10 mL of 2.67× Quench Solution, combine 1× Assay Buffer (9.73 mL) and 10 mM cold SAM (267 uL) to provide a final concentration of 100 uM cold SAM. Part C. Assay Reaction in 384-well Grenier Bio-One Plates Compound Addition • 1. Stamp 10 nL/well of 1000× Compound to test wells (as noted above). • 2. Stamp 10 nL/well of 100% DMSO to columns 6 & 18 (high and low controls, respectively). Assay • 1. Dispense 5 uL/well of 1× Assay Buffer to column 18 (low control reactions). • 2. Dispense 5 uL/well of 2× Substrate Solution to columns 1-24 (note: substrate solution should be mixed to ensure homogeneous bead suspension before dispensing into matrix reservoir). • 3. Dispense 5 uL/well of 2× Enzyme Solution to columns 1-17, 19-24. • 4. Incubate the reaction for 60 min at room temperature. Quench • 1. Dispense 6 uL/well of the 2.67× Quench Solution to columns 1-24. • 2. Seal assay plates and spin for ˜1 min at 500 rpm. • 3. Dark adapt plates in the ViewLux instrument for 15-60 min. Read Plates • 1. Read the assay plates on the Viewlux Plate Reader utilizing the 613 nm emission filter or clear filter (300 s exposure). Reagent addition can be done manually or with automated liquid handler. Results
Percent inhibition was calculated relative to the DMSO control for each compound concentration and the resulting values were fit using standard IC50 fitting parameters within the ABASE data fitting software package.

[2] = for XRPD after DVS experiment: form change or change in crystallinity: post DVS sample

IC50 [1] | SMILES | further results
≤ 10 nM | Cc1cc(C)c(CN2CCCc3sc([C@H](C)C4CCN(CC5CCCC5)CC4)c(C)c3C2=O)c(=O)[nH]1 [Example 4, (R)-2-(1-(1-(Cyclopentylmethyl)piperidin-4-yl)ethyl)-5-((4,6-dimethyl-2-oxo-1,2-dihydropyridin-3-yl)methyl)-3-methyl-5,6,7,8-tetrahydro-4H-thieno[3,2-c]azepin-4-one] | 
≤ 10 nM | CCC(C)(C)CN1CCC([C@@H](C)c2sc3c(c2C)C(=O)N(Cc2c(C)cc(C)[nH]c2=O)CCC3)CC1 [Example 5, (R)-5-((4,6-Dimethyl-2-oxo-1,2-dihydropyridin-3-yl)methyl)-2-(1-(1-(2,2-dimethylbutyl)piperidin-4-yl)ethyl)-3-methyl-5,6,7,8-tetrahydro-4H-thieno[3,2-c]azepin-4-one] | 
≤ 10 nM | Cc1cc(C)c(CN2CCCc3sc([C@H](C)C4CCN(CC(C)(C)F)CC4)c(C)c3C2=O)c(=O)[nH]1 [Example 6, (R)-5-((4,6-Dimethyl-2-oxo-1,2-dihydropyridin-3-yl)methyl)-2-(1-(1-(2-fluoro-2-methylpropyl)piperidin-4-yl)ethyl)-3-methyl-5,6,7,8-tetrahydro-4H-thieno[3,2-c]azepin-4-one] | 
≤ 10 nM | Cc1cc(C)c(CN2CCCc3sc([C@H](C)C4CCN(CC5CC5)CC4)c(C)c3C2=O)c(=O)[nH]1 [Example 7, (R)-2-(1-(1-(Cyclopropylmethyl)piperidin-4-yl)ethyl)-5-((4,6-dimethyl-2-oxo-1,2-dihydropyridin-3-yl)methyl)-3-methyl-5,6,7,8-tetrahydro-4H-thieno[3,2-c]azepin-4-one] | 
≤ 10 nM | Cc1cc(C)c(CN2CCCc3sc([C@H](C)C4CCN(CC5(C)CCCC5)CC4)c(C)c3C2=O)c(=O)[nH]1 [Example 8, (R)-5-((4,6-Dimethyl-2-oxo-1,2-dihydropyridin-3-yl)methyl)-3-methyl-2-(1-(1-((1-methylcyclopentyl)methyl)piperidin-4-yl)ethyl)-5,6,7,8-tetrahydro-4H-thieno[3,2-c]azepin-4-one] | 
≤ 10 nM | Cc1cc(C)c(CN2CCCc3sc([C@H](C)C4CCN(CC56CCC(CC5)CC6)CC4)c(C)c3C2=O)c(=O)[nH]1 [Example 9, (R)-2-(1-(1-(Bicyclo[2.2.2]octan-1-ylmethyl)piperidin-4-yl)ethyl)-5-((4,6-dimethyl-2-oxo-1,2-dihydropyridin-3-yl)methyl)-3-methyl-5,6,7,8-tetrahydro-4H-thieno[3,2-c]azepin-4-one] | 
≤ 10 nM | Cc1cc(C)c(CN2CCCc3sc([C@H](C)C4CCN(CC5(C)CC5)CC4)c(C)c3C2=O)c(=O)[nH]1 [Example 11, (R)-5-((4,6-Dimethyl-2-oxo-1,2-dihydropyridin-3-yl)methyl)-3-methyl-2-(1-(1-((1-methylcyclopropyl)methyl)piperidin-4-yl)ethyl)-5,6,7,8-tetrahydro-4H-thieno[3,2-c]azepin-4-one] | 

Second part, the compound before the results:

SMILES | IC50 [1] | further results
Cc1cc(C)c(CN2CCCc3sc([C@H](C)C4CCN(CC(C)(C)C)CC4)c(C)c3C2=O)c(=O)[nH]1 [Example 1, (R)-5-((4,6-Dimethyl-2-oxo-1,2-dihydropyridin-3-yl)methyl)-3-methyl-2-(1-(1-neopentylpiperidin-4-yl)ethyl)-5,6,7,8-tetrahydro-4H-thieno[3,2-c]azepin-4-one] | ≤ 10 nM | 
Cc1cc(C)c(CN2CCCc3sc([C@H](C)C4CCN(CC5CCC5)CC4)c(C)c3C2=O)c(=O)[nH]1 [Example 2, (R)-2-(1-(1-(Cyclobutylmethyl)piperidin-4-yl)ethyl)-5-((4,6-dimethyl-2-oxo-1,2-dihydropyridin-3-yl)methyl)-3-methyl-5,6,7,8-tetrahydro-4H-thieno[3,2-c]azepin-4-one] | ≤ 10 nM | 
Cc1cc(C)c(CN2CCCc3sc([C@H](C)C4CCN(CC(C)C)CC4)c(C)c3C2=O)c(=O)[nH]1 [Example 3, (R)-5-((4,6-Dimethyl-2-oxo-1,2-dihydropyridin-3-yl)methyl)-2-(1-(1-isobutylpiperidin-4-yl)ethyl)-3-methyl-5,6,7,8-tetrahydro-4H-thieno[3,2-c]azepin-4-one] | ≤ 10 nM | 
Cc1cc(C)c(CN2CCCc3sc([C@H](C)C4CCN(CC5(C)CCC5)CC4)c(C)c3C2=O)c(=O)[nH]1 [Example 10, (R)-5-((4,6-Dimethyl-2-oxo-1,2-dihydropyridin-3-yl)methyl)-3-methyl-2-(1-(1-((1-methylcyclobutyl)methyl)piperidin-4-yl)ethyl)-5,6,7,8-tetrahydro-4H-thieno[3,2-c]azepin-4-one] | ≤ 10 nM | 
Cc1cc(C)c(CN2CCCc3sc([C@H](C)C4CCN(CC5(C)CCC5)CC4)c(C)c3C2=O)c(=O)[nH]1.Cl [hydrochloric acid salt of (R)-5-((4,6-dimethyl-2-oxo-1,2-dihydropyridin-3-yl)methyl)-3-methyl-2-(1-(1-((1-methylcyclobutyl)methyl)piperidin-4-yl)ethyl)-5,6,7,8-tetrahydro-4H-thieno[3,2-c]azepin-4-one] |  | hygroscopicity ([2]; DVS isotherm 5-95% RH): low level of hygroscopicity; DVS moisture uptake ([2]; between 5-75% RH): ~0.5%; DVS total uptake of water ([2]; from 5-95% RH): 0.6%; XRPD after DVS experiment: form change or change in crystallinity [2]: did not show a change in crystal form or crystallinity
Cc1cc(C)c(CN2CCCc3sc([C@H](C)C4CCN(CC(C)(C)C)CC4)c(C)c3C2=O)c(=O)[nH]1.Cl [hydrochloric acid salt of (R)-5-((4,6-dimethyl-2-oxo-1,2-dihydropyridin-3-yl)methyl)-3-methyl-2-(1-(1-neopentylpiperidin-4-yl)ethyl)-5,6,7,8-tetrahydro-4H-thieno[3,2-c]azepin-4-one] |  | DVS total moisture uptake ([2]; first cycle from 40-75% RH): 0.5%; XRPD after DVS experiment: form change or change in crystallinity [2]: did not indicate a form change or change in crystallinity; DVS decrease ([2]; second cycle, between 80-90% RH): 0.4%; DVS sorption ([2]; second cycle, from 5-80% RH): 1.0%
